One test deals with TAZ4SA. The test is described as follows: Gene expression and ECM deposition in NIH-3T3 cells expressing constitutively active mutant TAZ (TAZ4SA). The class given is cell-based, mouse. The following applies: doxycycline-induced TAZ4SA NIH-3T3. As to the method: FIGS. 8A-8B DHX inhibition of pro-fibrotic gene expression and matrix deposition requires inhibition of YAP/TAZ. […] TAZ4SA expression was induced with 100 ng/mL doxycycline for 72 hours prior to treatment with 10 μM or the indicated concentration of dihydrexidine. For gene expression experiments efficacy of DHX in NIH-3T3 cells was validated with by DHX (10 μM) effect on TGFβ (24 hour, 2 ng/mL) induced gene expression. N=2 for all.
Cell culture: Cells were all maintained in EMEM (ATCC) containing 10% FBS, unless otherwise noted. IMR-90 embryonic lung fibroblasts and NIH-3T3 mouse fibroblasts were purchased from ATCC. Doxycycline-inducible Tet-On NIH3T3 expressing TAZ4SA or control empty vector were described previously. Normal Human Alveolar Epithelial Cells (NHAEpCs), Normal Human Microvascular Endothelial Cells (NHMVECs), Normal Human Lung Fibroblasts (NHLFs), and Human Dermal Fibroblasts (HDFs) were purchased from Lonza and were cultured in the proprietary media per Lonza's recommendation. Human Adult Cardiac Fibroblasts (HACFs) and Hepatic Stellate Cells (HSCs) were purchased from ScienCell and were cultured in the proprietary media per ScienCell's recommendation. Hepatocytes were purchased from Samsara and were cultured in the proprietary media per Samsara's recommendation. […]

The test system of another test is αSMA+ stress fibers. The test is described as follows: TGFβ-induced αSMA+ stress fiber formation. The note with it: IMR-90, TGFβ 72 hours, DHX 10 μM from 48-72 hours. It is filed as cell-based, human. As to the method:
ImmunofluorescenceMicroscopy: Cells were plated into 96 well plates (Corning 3603) in their specific growth media and allowed to attach (8 hours). Media was then exchanged for the indicated conditions for each experiment. Cells were fixed in 3.7% formalin (Sigma-Aldrich), permeabilized in 0.25% Triton X-100 (Sigma-Aldrich) and then blocked with 1% BSA for 1 h. Cells or tissue sections were incubated overnight with mouse monoclonal antibody against αSMA (Sigma-Aldrich F3777), and/or a rabbit monoclonal antibody against YAP/TAZ (Cell Signaling D24E4) diluted 1:200 in PBS with 1% BSA.

Turning to `Oc1cc2c(cc1O)[C@H]1c3ccccc3CN[C@@H]1CC2` (racemic) [Dihydrexidine, dihydrexidine], in the test with TAZ4SA, the “profibrotic gene expression and extracellular matrix accumulation in TAZ4SA cells” value was “had no effect on profibrotic gene expression or extracellular matrix accumulation”. Further, the “myofibroblastic transition (αSMA+ stress fibers)” value with αSMA+ stress fibers is “reversed this transition”.
